Measurements: patent publication US20100063074A1, “Cancer Treatment Method” (priority 2004, published 2010)
Like-named read-outs stand apart in the source and are kept apart here.

What was measured:
EGFR and erbB2 kinases = conditions: Rusnak et al., 2001b; Xia et al., 2002; cited from earlier work
[1] = system: pancreatic cancer with distant metastases; conditions: pancreatic tumors with distant metastases; cited from earlier work
SW837 = test: Cell growth inhibition IC50, SW837; conditions: Homo sapiens, SW837, read-out: Growth Inhibition (IC50 μM)
H157 = test: Cell growth inhibition IC50, H157; type: cell-based; conditions: Homo sapiens, NCI-H157, Lung carcinoma
Protocol: (§1) The cells were maintained in tissue culture flasks in RPMI 1640 (Invitrogen # 22400-089) with 10% fetal bovine serum (FBS, HyClone # SH30071.03) and were incubated at 37° Celsius in an atmosphere of 5% CO2, until plating for IC50 determination. For IC50 determination, cells were plated in the appropriate medium at 5,000 cells per well in a 96-well tissue culture dish and returned to the incubator overnight. […] Final concentrations ranged from 30 micromolar to 0.00152 micromolar. After three days of compound exposure, the growth medium was removed by aspiration. Cell biomass was estimated by staining cells in 0.1 ml per well of methylene blue (Sigma #M9140, 0.5% in 50:50, ethanol:water), followed by incubation at room temperature for at least 30 minutes. Stain was aspirated and the plates rinsed by immersion in deionized water, followed by air drying. Stain was released from cells by the addition of 0.1 ml of solubilization solution (1.0% N-lauryl sarcosine, Sodium salt, Sigma #L5121 in PBS). Plates were incubated at room temperature for 40 minutes. Absorbance was read at 620 nm in a Tecan Spectra micro-plate reader. Percent inhibition of cell growth was calculated relative to untreated control wells. IC50 values were interpolated using the method of Levenberg and Marquardt (Mager, 1972) and the equation: y=Vmax*[1−(x^n/(K^n+x^n))], where “K” is equal to IC50. […]

HCT 116 = test: Cell growth inhibition IC50, HCT 116; conditions: Homo sapiens, HCT-116, read-out: Growth Inhibition (IC50 μM)
Protocol: as §1

NCI-H460 = test: Cell growth inhibition IC50, NCI-H460; type: cell-based; conditions: Homo sapiens, Lung Carcinoma
Protocol: (§2) The human bladder cell lines, HT-1197, HT-1376 and T24, and the ovarian cell line, SKOV3, were obtained from the American Type Culture Collection. The cells were maintained in tissue culture flasks in RPMI 1640 (Invitrogen # 22400-089) with 10% fetal bovine serum (FBS, HyClone # SH30071.03) and were incubated at 37° Celsius in an atmosphere of 5% CO2, until plating for IC50 determination. For IC50 determination, cells were plated in the appropriate medium at 5,000 cells per well in a 96-well tissue culture dish and returned to the incubator overnight. […] Final concentrations ranged from 30 micromolar to 0.00152 micromolar. After three days of compound exposure, the growth medium was removed by aspiration. Cell biomass was estimated by staining cells in 0.1 ml per well of methylene blue (Sigma #M9140, 0.5% in 50:50, ethanol:water), followed by incubation at room temperature for at least 30 minutes. Stain was aspirated and the plates rinsed by immersion in deionized water, followed by air drying. Stain was released from cells by the addition of 0.1 ml of solubilization solution (1.0% N-lauryl sarcosine, Sodium salt, Sigma #L5121 in PBS). Plates were incubated at room temperature for 40 minutes. Absorbance was read at 620 nm in a Tecan Spectra micro-plate reader. Percent inhibition of cell growth was calculated relative to untreated control wells. […]

[2] = system: locally advanced or metastatic transitional cell carcinoma of the urothelial tract
Protocol: Safety and efficacy assessments (independent review) were carried out at 4 and 8-week intervals respectively. Patients were also assessed at withdrawal, and followed every 2 months until death.

NCI-H747 = test: Cell growth inhibition IC50, NCI-H747; conditions: Homo sapiens, NCI-H747, read-out: Growth Inhibition (IC50 μM)
Protocol: as §1

H1376 = test: Cell growth inhibition IC50 (methylene blue), H1376; conditions: Homo sapiens, 72 h, read-out: Growth Inhibition (IC50 μM)
Protocol: as §2

CaLu3 = test: Cell growth inhibition IC50, CaLu3; conditions: Homo sapiens, Calu-3, read-out: Growth Inhibition (IC50 μM)
Protocol: as §2

H1197 = test: Cell growth inhibition IC50 (methylene blue), H1197; conditions: Homo sapiens, 72 h, read-out: Growth Inhibition (IC50 μM)
Protocol: The cells were maintained in tissue culture flasks in RPMI 1640 (Invitrogen # 22400-089) with 10% fetal bovine serum (FBS, HyClone # SH30071.03) and were incubated at 37° Celsius in an atmosphere of 5% CO2, until plating for IC50 determination. For IC50 determination, cells were plated in the appropriate medium at 5,000 cells per well in a 96-well tissue culture dish and returned to the incubator overnight. […] Final concentrations ranged from 30 micromolar to 0.00152 micromolar. After three days of compound exposure, the growth medium was removed by aspiration. Cell biomass was estimated by staining cells in 0.1 ml per well of methylene blue (Sigma #M9140, 0.5% in 50:50, ethanol:water), followed by incubation at room temperature for at least 30 minutes. Stain was aspirated and the plates rinsed by immersion in deionized water, followed by air drying. Stain was released from cells by the addition of 0.1 ml of solubilization solution (1.0% N-lauryl sarcosine, Sodium salt, Sigma #L5121 in PBS). Plates were incubated at room temperature for 40 minutes. Absorbance was read at 620 nm in a Tecan Spectra micro-plate reader. Percent inhibition of cell growth was calculated relative to untreated control wells. IC50 values were interpolated using the method of Levenberg and Marquardt (Mager, 1972) and the equation: y=Vmax*[1−(x^n/(K^n+x^n))], where “K” is equal to IC50.

LNCaP = test: Cell growth inhibition IC50, LNCaP; conditions: Homo sapiens, read-out: Growth Inhibition (IC50 μM)
Protocol: as §2

SKMEL28 = test: Cell growth inhibition IC50, SKMEL28; type: cell-based; conditions: Homo sapiens, SK-MEL-28, Melanoma
Protocol: as §1

A549 = test: Cell growth inhibition IC50, A549; conditions: Homo sapiens, A549, read-out: Growth Inhibition (IC50 μM)
Protocol: as §2

BxPC3 = test: Cell growth inhibition IC50, BxPC3; conditions: Homo sapiens, BXPC-3, read-out: Growth Inhibition (IC50 μM)
Protocol: as §1

A431 = test: Cell growth inhibition IC50, A431; conditions: Homo sapiens, A-431, read-out: Growth Inhibition (IC50 μM)
Protocol: as §2

NCI-H322 = test: Cell growth inhibition IC50, NCI-H322; type: cell-based; conditions: NSCLC
Protocol: as §1

HT29 = test: Cell growth inhibition IC50, HT29; conditions: Homo sapiens, HT-29, read-out: Growth Inhibition (IC50 μM)
Lovo = test: Cell growth inhibition IC50, Lovo; type: cell-based; conditions: Homo sapiens, Colorectal carcinoma
Protocol: as §2

A427 = test: Cell growth inhibition IC50, A427; type: cell-based; conditions: Homo sapiens, A-427, Lung Carcinoma
Protocol: as §2

RKO = test: Cell growth inhibition IC50, RKO; type: cell-based; conditions: Homo sapiens, Colorectal carcinoma
Protocol: as §1

T24 = test: Cell growth inhibition IC50 (methylene blue), T24; conditions: Homo sapiens, T-24, 72 h, read-out: Growth Inhibition (IC50 μM)
Protocol: as §2

NCI-H358 = test: Cell growth inhibition IC50, NCI-H358; conditions: Homo sapiens, NCI-H358, read-out: Growth Inhibition (IC50 μM)
Protocol: as §1

Colo 205 = test: Cell growth inhibition IC50, Colo 205; conditions: Homo sapiens, COLO 205, read-out: Growth Inhibition (IC50 μM)
solid tumors = conditions: for time remained on lapatinib, SD patient: progressing on previous therapy
NCI-H2009 = test: Cell growth inhibition IC50, NCI-H2009; conditions: Homo sapiens, NCI-H2009, read-out: Growth Inhibition (IC50 μM)
Protocol: as §1

[3] = system: locally advanced or metastatic TCC of the bladder
786O = test: Cell growth inhibition IC50, 786O; conditions: Homo sapiens, 786-0, read-out: Growth Inhibition (IC50 μM)
Protocol: as §2

SW480 = test: Cell growth inhibition IC50, SW480; conditions: Homo sapiens, SW480, read-out: Growth Inhibition (IC50 μM)
Protocol: as §2

LS174T = test: Cell growth inhibition IC50, LS174T; type: cell-based; conditions: Homo sapiens, Colon adenocarcinoma
Protocol: as §1

SW620 = test: Cell growth inhibition IC50, SW620; conditions: Homo sapiens, SW-620, read-out: Growth Inhibition (IC50 μM)
DLD-1 = test: Cell growth inhibition IC50, DLD-1; conditions: Homo sapiens, DLD-1, read-out: Growth Inhibition (IC50 μM)
Protocol: as §1

SKOV3 = test: Cell growth inhibition IC50 (methylene blue), SKOV3; conditions: Homo sapiens, SK-OV-3, 72 h, read-out: Growth Inhibition (IC50 μM)
Protocol: as §2

Calu1 = test: Cell growth inhibition IC50, Calu1; conditions: Homo sapiens, Calu-1, read-out: Growth Inhibition (IC50 μM)
Protocol: as §1

NCI-H727 = test: Cell growth inhibition IC50, NCI-H727; type: cell-based; conditions: Homo sapiens, Lung carcinoid bronchus
Protocol: as §1

HMEC = test: Cell growth inhibition IC50, HMEC; conditions: Homo sapiens, read-out: Growth Inhibition (IC50 μM)
Protocol: as §1

[4] = system: H16 N2 (Transfected erbB2); test: Cell growth inhibition IC50, H16 N2; conditions: read-out: Growth Inhibition (IC50 μM)
Protocol: as §2

PC3 = test: Cell growth inhibition IC50, PC3; conditions: Homo sapiens, PC-3, read-out: Growth Inhibition (IC50 μM)
Protocol: as §2

HFF = test: Cell growth inhibition IC50, HFF; conditions: Homo sapiens, read-out: Growth Inhibition (IC50 μM)
Protocol: as §2

[5] = 1250 mg once daily, interim analysis of 30 patients
[6] = Head and Neck, 9 patients, only patients receiving lapatinib more than 4 months
[7] = QD administration, heavily pre-treated population
[8] = 1250 mg daily oral, 59 patients, investigator reported

## CS(=O)(=O)CCNCc1ccc(-c2ccc3ncnc(Nc4ccc(OCc5cccc(F)c5)c(Cl)c4)c3c2)o1 [GW572016, N-{3-chloro-4-[(3-fluorobenzyl)oxy]phenyl}-6-[5-({[2-(methanesulphonyl)ethyl]amino}methyl)-2-furyl]-4-quinazolinamine]
EGFR and erbB2 kinases
  kinase inhibition in human xenograft studies: dose-dependent kinase inhibition

## Nc1ccn([C@@H]2O[C@H](CO)[C@@H](O)C2(F)F)c(=O)n1 [gemcitabine]
[1]
  clinical benefit response (cancer-related symptoms): 23.8%
  overall survival: 5.6 months

## CS(=O)(=O)CCNCc1ccc(-c2ccc3ncnc(Nc4ccc(OCc5cccc(F)c5)c(Cl)c4)c3c2)o1.Cc1ccc(S(=O)(=O)O)cc1 [GW572016F, N-{3-Chloro-4-[(3-fluorobenzyl)oxy]phenyl}-6-[5-({[2-(methanesulphonyl)ethyl]amino}methyl)-2-furyl]-4-quinazolinamine ditosylate monohydrate]
SW837
  IC50: 4.7 µM
H157
  IC50: 5.98 µM
HCT 116
  IC50: 5.87 µM
NCI-H460
  IC50: 9 µM
[2]; [5]
  Clinical benefit (≧6 months SD): 10%
  PR confirmed at 8 weeks (number): one
  patients with progressive disease: 17%
  patients with tumour reduction qualified as partial responses (PR) at the initial assessment: 10%
[2]; second-line oral treatment
  activity (in words): promising activity
NCI-H747
  IC50: 1.49 µM
H1376
  IC50: 3.34 µM
CaLu3
  IC50: 0.057 µM
H1197
  IC50: 7.78 µM
LNCaP
  IC50: 4.69 µM
SKMEL28
  IC50: 5.9 µM
A549
  IC50: 4.98 µM
BxPC3
  IC50: 1.41 µM
A431
  IC50: 0.23 µM
NCI-H322
  IC50: 0.92 µM
HT29
  IC50: 5.24 µM
Lovo
  IC50: 3.39 µM
A427
  IC50: 5.95 µM
RKO
  IC50: 5.48 µM
T24
  IC50: 8.22 µM
NCI-H358
  IC50: 0.27 µM
Colo 205
  IC50: 7.7 µM
Solid tumors; 22 SD pts
  median duration of SD: 4 mos
Solid tumors; 81 patients treated
  interstitial pneumonitis: no cases
Solid tumors; AUP metastatic to lung
  time remained on lapatinib, SD patient: ≥ 8 mos
Solid tumors; AUP, 6 patients, only patients receiving lapatinib more than 4 months
  Clinical Response, SD (patients): SD = 1
Solid tumors; Breast, 6 patients, only patients receiving lapatinib more than 4 months
  Clinical Response, SD (patients): SD = 2
Solid tumors; Cervical, 2 patients, only patients receiving lapatinib more than 4 months
  Clinical Response, SD (patients): SD = 1
Solid tumors; Colorectal, 27 patients, only patients receiving lapatinib more than 4 months
  Clinical Response, SD (patients): SD = 3
Solid tumors; [6]
  Clinical Response, CR (patients): 1
  Clinical Response, SD (patients): 3
Solid tumors; Mesothelioma, 3 patients, only patients receiving lapatinib more than 4 months
  Clinical Response, SD (patients): SD = 1
Solid tumors; NSCLC, 7 patients, only patients receiving lapatinib more than 4 months
  Clinical Response, SD (patients): SD = 3
Solid tumors; [7]
  clinical activity (in words): evidence of clinical activity
  tolerability (in words): well tolerated
Solid tumors; Renal, 6 patients, only patients receiving lapatinib more than 4 months
  Clinical Response, SD (patients): SD = 2
Solid tumors; erbB1 overexpressing head and neck squamous cell carcinoma
  duration of CR: ≥ 16 mos
Solid tumors; erbB1 overexpressing head and neck squamous cell carcinoma, 81 patients treated
  CR (number of patients): One
Solid tumors; non-small cell lung cancer
  time remained on lapatinib, SD patient: ≥ 12 mos
Solid tumors; various tumors most overexpressing either erbB1 or erbB2, 81 patients treated
  patients who experienced SD: Twenty-two
NCI-H2009
  IC50: 11.5 µM
[3]; 1250 mg daily
  patients with asymptomatic, Grade 2 decrease in cardiac ejection fraction: One
  tolerability (in words): well-tolerated
[3]; 1250 mg daily oral, 59 patients, RECIST
  PR, independent radiologic review: 2%
[3]; [8]
  partial responses (PR), investigators: 3%
  stable disease (SD), investigators: 20%
[3]; 1250 mg daily, Grade 3/4
  Grade 3/4 AEs: diarrhea: 3%
  Grade 3/4 AEs: vomiting: 7%
[3]; 1250 mg daily, all grades
  Adverse events: asthenia: 12%
  Adverse events: diarrhea: 39%
  Adverse events: fatigue: 10%
  Adverse events: nausea: 27%
  Adverse events: rash: 32%
  Adverse events: vomiting: 22%
[3]; 95% CI 8.00, 11.29
  median TTP: 8.6 weeks
[3]; 95% CI 13.14, 30.29
  median overall survival: 17.9 weeks
[3]; assessed by independent review
  clinical benefit (CR+PR+SD≧16 weeks), independent review: 12%
[3]; assessed by investigator
  clinical benefit (CR+PR+SD≧16 weeks), investigator: 14%
[3]; at week 8
  patients with cytoreduction: 10 patients
  patients with cytostasis: 4 patients
  patients with tumor growth up to 20%: 10 patients
[3]; independent review
  patients with durable SD lasting 6 months: three
[3]; investigator review
  patients with durable SD lasting 4 months: six
[3]; one patient
  time on study of one patient who remains on study: > 56 weeks
[3]; relapsed, advanced or metastatic TCC of the bladder
  activity (in words): exhibits monotherapy activity
786O
  IC50: 1.82 µM
SW480
  IC50: 6.86 µM
LS174T
  IC50: 1.51 µM
SW620
  IC50: 6.75 µM
DLD-1
  IC50: 3.63 µM
SKOV3
  IC50: 1.25 µM
Calu1
  IC50: 5.51 µM
NCI-H727
  IC50: 7.59 µM
HMEC
  IC50: 1.34 µM
[4]
  IC50: 0.03 µM
PC3
  IC50: 7.15 µM
HFF
  IC50: 6.45 µM

## O=c1[nH]cc(F)c(=O)[nH]1 [FU, fluorouracil]
[1]
  clinical benefit response (cancer-related symptoms): 4.8%
  overall survival: 4.4 months
